Where two headings read alike, the source gives them in different places.
How the values were obtained:
[1] = target: T1, D1 (Homo sapiens, UniProt P21728); assay: cell-based; type: cell-based
T1 construct: purchased ICE Bioscience ICESTP™ SafetyOne44 Panel

[2] = target: T2, M2 (Homo sapiens, UniProt P08172); assay: cell-based; type: cell-based
T2 construct: purchased ICE Bioscience ICESTP SafetyOne44 Panel

[3] = target: V1a (Homo sapiens, UniProt P37288); assay: cell-based; conditions: read-out: Antagonist JDIC-127 @10 μmol/L
[4] = tested on: C57BL/6 mice; assay: Forced swim test (FST); type: in vivo; conditions: 0.3 or 3 mg/kg p.o., 14 days
[5] = target: T3, 5-HT1B (Homo sapiens, UniProt P28222); assay: cell-based; conditions: 10 μmol/L
T3 construct: purchased ICE Bioscience ICESTP SafetyOne44 Panel

[6] = in vivo; conditions: male, C57BL/6, mouse, B/P
[7] = target: T4, β1 (Homo sapiens, UniProt P08588); assay: SafetyOne44 panel: β1; type: cell-based
T4 construct: purchased ICE Bioscience ICESTP™ SafetyOne44 Panel

[8] = target: T5, 5-HT2A (Homo sapiens, UniProt P28223); assay: cell-based; type: cell-based
T5 construct: purchased ICE Bioscience ICESTP SafetyOne44 Panel

[9] = tested on: GABAA; type: cell-based
[10] = target: T6, PDE4 D2 (Homo sapiens, UniProt Q08499); assay: biochemical; conditions: PDE4D2, 10 μmol/L; read-out: Antagonist JDIC-127 @10 μmol/L
T6 construct: purchased ICE Bioscience ICESTP™ SafetyOne44 Panel

[11] = tested on: C57BL/6J mice; assay: CCK-4-induced anxiety model, elevated plus maze; type: in vivo; conditions: CCK-4 model, 10 mg/kg p.o.
[12] = target: T7, TRPC4 (Homo sapiens, UniProt Q9UBN4); assay: Whole-cell patch-clamp, TRPC4, 100 nmol/L EA; type: cell-based; conditions: HEK293T
T7 construct: expressed in transfected cells
Source text: Given that TRPC4 and TRPC5 are highly similar and often form heteromeric with TRPC1, we evaluated JDIC-127's activity on TRPC4, TRPC1/4, and TRPC1/5 using whole-cell patch-clamp recordings under agonist stimulation with 100 nmol/L EA in HEK293T cells. […].
For electrophysiological activity testing of compounds against TRPC4 and TRPC5, stably expressed TRPC5 or TRPC4 cells were used for whole-cell patch-clamp recordings, employing a HEKA EPC10 amplifier and […] software (https://www.heka.com/downloads/downloads_main.html#down_patchmaster). Prior to recording, cells were induced with 1 μg/mL tetracycline for 24 h. For TRPC1/4 or TRPC1/5 heteromers, plasmids TRPC1 and TRPC5 or TRPC1 and TRPC4 were co-transfected into HEK293T cells. After 48 to 72 h of transfection, testing was performed. A 1-s ramp protocol from −100 to +100 mV at 0.2 Hz was applied, as previously described. The extracellular solution consisted of 140 mmol/L NaCl, 1 mmol/L MgCl2, 2 mmol/L CaCl2, 10 mmol/L Hepes, 5 mmol/L KCl, and 10 mmol/L D-glucose, with pH adjusted to 7.4 using NaOH. […] The half-maximal inhibitory concentration (IC50) of drugs was determined by recording currents at a +100 mV pulse and analyzing current amplitudes at varying drug concentrations, with IC50 values calculated using the Hill equation. […]

[13] = target: T8, ETA (Homo sapiens, UniProt P25101); assay: SafetyOne44 panel: ETA; type: cell-based; conditions: ETA, 10 μmol/L
T8 construct: purchased ICE Bioscience ICESTP™ SafetyOne44 Panel
T8 sequence (P25101 21-427): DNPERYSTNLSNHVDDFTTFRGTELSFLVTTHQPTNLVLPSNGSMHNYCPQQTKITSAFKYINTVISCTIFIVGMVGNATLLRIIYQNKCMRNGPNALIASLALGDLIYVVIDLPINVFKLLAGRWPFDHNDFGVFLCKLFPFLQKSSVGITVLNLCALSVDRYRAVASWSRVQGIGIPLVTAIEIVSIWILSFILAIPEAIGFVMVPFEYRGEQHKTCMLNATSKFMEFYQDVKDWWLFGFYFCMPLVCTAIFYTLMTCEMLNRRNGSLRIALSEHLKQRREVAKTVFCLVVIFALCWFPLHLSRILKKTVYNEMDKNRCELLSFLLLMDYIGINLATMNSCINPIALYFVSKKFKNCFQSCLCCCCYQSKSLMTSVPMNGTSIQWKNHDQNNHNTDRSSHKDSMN

[14] = target: T9, δOR (Homo sapiens, UniProt P41143); assay: cell-based; type: cell-based
T9 construct: purchased ICE Bioscience ICESTP™ SafetyOne44 Panel

[15] = tested on: C57BL/6 mice; assay: Tail suspension test (TST); type: in vivo
[16] = target: T10, LCK (Homo sapiens, UniProt P06239); assay: biochemical; conditions: 10 μmol/L, read-out: Antagonist JDIC-127 @10 μmol/L
T10 construct: purchased ICE Bioscience ICESTP™ SafetyOne44 Panel

[17] = target: T11, 5-HT2B (Homo sapiens, UniProt P41595); assay: cell-based; type: cell-based; conditions: 5-HT2B, 10 μmol/L
T11 construct: purchased ICE Bioscience ICESTP SafetyOne44 Panel

[18] = antagonist mode, read-out: Antagonist JDIC-127 @10 μmol/L
[19] = antagonist mode, 10 μmol/L, read-out: Antagonist JDIC-127 @10 μmol/L

T4 sequence (P08588 whole entry): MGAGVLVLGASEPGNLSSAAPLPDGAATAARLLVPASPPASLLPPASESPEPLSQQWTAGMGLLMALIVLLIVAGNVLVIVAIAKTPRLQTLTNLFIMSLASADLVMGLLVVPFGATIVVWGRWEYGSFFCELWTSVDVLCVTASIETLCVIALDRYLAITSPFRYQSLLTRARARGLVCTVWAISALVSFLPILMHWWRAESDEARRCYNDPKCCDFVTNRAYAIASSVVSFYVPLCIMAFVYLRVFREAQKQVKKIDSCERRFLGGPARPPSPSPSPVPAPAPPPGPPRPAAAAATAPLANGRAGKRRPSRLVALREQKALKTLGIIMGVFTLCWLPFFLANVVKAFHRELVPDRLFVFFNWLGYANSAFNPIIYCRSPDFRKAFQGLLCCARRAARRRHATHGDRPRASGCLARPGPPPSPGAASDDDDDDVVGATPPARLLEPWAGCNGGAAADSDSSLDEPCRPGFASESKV
T5 sequence (P28223 whole entry): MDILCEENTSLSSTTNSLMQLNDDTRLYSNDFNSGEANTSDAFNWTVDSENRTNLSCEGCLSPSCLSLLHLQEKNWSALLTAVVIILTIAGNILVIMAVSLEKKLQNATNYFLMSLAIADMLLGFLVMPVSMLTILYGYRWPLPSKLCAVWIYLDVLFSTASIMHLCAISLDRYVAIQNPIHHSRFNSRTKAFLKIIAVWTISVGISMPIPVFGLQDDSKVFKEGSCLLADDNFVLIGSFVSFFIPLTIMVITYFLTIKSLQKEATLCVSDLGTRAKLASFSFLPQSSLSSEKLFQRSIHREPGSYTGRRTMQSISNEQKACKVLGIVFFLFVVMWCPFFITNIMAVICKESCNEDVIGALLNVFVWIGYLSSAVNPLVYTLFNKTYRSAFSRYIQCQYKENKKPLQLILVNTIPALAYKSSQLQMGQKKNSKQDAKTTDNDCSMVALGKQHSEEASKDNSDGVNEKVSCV
T11 sequence (P41595 whole entry): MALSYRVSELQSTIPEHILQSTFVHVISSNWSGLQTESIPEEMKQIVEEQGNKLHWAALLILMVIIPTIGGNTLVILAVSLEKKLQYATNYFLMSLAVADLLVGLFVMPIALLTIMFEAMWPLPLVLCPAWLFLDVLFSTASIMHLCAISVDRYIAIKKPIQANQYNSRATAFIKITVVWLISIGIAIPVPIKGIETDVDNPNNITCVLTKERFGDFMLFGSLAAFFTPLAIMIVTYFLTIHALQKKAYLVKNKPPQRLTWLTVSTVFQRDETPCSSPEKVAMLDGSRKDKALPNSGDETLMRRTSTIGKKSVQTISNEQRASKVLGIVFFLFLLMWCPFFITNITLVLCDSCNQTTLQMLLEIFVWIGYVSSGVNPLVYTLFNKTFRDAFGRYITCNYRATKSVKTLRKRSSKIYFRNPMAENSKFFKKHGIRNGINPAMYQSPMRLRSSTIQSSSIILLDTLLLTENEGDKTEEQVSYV
T1 sequence (P21728 whole entry): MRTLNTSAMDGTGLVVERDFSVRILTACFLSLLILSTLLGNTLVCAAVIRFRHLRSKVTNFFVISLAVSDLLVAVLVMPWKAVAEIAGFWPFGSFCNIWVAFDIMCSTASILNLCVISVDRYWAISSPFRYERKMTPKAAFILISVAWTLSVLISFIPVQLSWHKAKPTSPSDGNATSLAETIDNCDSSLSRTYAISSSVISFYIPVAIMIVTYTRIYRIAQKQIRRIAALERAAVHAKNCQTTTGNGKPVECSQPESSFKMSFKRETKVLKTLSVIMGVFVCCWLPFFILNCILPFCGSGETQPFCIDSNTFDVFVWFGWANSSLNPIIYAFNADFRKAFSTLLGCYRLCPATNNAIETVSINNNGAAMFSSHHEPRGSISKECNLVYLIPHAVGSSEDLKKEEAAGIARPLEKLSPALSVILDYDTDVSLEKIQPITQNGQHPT
T9 sequence (P41143 whole entry): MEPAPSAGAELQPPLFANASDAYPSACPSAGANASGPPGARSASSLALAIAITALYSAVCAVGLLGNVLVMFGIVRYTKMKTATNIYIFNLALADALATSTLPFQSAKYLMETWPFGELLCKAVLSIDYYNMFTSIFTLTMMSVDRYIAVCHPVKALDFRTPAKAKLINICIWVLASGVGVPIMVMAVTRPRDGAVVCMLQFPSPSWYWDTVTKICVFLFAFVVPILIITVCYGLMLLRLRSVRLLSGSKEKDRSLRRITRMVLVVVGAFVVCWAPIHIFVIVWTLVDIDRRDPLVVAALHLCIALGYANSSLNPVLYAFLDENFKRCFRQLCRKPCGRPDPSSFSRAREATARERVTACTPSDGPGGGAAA
T2 sequence (P08172 whole entry): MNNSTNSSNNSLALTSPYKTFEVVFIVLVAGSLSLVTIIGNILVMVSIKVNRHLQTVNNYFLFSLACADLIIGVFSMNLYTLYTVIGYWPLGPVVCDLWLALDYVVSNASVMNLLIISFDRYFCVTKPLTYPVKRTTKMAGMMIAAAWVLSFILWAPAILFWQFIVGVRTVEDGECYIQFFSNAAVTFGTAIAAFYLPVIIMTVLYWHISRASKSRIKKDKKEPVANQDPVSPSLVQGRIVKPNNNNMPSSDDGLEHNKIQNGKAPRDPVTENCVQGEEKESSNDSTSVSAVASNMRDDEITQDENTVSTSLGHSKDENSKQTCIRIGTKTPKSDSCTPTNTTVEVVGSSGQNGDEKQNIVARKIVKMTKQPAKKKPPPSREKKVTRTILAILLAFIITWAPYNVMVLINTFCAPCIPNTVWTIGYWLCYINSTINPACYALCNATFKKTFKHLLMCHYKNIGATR
T3 sequence (P28222 whole entry): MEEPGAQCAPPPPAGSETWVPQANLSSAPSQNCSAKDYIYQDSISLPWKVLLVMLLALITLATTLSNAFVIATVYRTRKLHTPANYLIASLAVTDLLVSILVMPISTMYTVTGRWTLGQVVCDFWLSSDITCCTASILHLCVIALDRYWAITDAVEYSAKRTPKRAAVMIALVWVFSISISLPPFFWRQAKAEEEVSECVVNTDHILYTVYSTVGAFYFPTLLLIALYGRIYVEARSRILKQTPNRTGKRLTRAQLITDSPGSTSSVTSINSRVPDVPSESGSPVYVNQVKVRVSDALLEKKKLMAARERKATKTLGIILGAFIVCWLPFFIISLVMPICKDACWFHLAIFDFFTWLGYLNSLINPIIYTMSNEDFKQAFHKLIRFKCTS
T6 sequence (Q08499 303-809 limits assumed): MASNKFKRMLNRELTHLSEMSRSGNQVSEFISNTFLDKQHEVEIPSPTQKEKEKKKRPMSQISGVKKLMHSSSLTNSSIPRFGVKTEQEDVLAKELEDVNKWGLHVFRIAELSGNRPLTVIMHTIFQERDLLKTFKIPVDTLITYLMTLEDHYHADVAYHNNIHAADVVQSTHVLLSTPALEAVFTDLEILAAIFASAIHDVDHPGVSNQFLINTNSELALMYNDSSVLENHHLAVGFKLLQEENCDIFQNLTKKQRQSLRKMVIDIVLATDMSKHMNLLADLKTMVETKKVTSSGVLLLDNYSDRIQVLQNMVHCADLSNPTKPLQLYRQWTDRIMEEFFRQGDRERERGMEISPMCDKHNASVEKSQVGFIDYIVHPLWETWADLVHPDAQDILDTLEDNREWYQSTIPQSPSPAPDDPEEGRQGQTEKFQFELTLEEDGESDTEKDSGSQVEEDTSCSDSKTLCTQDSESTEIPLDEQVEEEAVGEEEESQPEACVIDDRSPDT
T10 sequence (P06239 whole entry): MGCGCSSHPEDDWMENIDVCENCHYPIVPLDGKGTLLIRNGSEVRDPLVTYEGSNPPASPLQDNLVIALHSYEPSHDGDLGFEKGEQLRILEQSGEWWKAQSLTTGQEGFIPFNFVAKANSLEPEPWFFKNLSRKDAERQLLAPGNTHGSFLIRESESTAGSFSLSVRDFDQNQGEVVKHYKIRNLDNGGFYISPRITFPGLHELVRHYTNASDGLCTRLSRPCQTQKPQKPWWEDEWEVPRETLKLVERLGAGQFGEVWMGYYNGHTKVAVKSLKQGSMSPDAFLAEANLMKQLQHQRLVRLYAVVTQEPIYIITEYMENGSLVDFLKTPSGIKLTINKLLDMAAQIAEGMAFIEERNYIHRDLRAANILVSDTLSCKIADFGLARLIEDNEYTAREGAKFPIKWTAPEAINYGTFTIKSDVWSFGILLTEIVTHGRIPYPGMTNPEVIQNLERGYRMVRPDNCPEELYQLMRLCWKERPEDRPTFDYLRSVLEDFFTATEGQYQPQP
Sequence of V1a (P37288 whole entry): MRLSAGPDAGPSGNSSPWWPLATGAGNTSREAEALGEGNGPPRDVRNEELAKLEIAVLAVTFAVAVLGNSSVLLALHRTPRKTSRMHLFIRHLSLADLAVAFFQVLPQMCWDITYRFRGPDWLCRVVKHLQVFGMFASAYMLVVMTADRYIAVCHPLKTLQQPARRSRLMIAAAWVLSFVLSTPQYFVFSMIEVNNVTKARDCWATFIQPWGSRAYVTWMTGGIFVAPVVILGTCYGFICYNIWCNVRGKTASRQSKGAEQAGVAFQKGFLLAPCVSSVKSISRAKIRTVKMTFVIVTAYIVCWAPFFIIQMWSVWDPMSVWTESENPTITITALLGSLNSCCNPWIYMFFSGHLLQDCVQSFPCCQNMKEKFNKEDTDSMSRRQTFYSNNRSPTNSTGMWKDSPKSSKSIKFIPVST

O=c1c2c3nc(n2Cc2ccc(Cl)cc2)Oc2ccc(F)c(c2)OCCCCCCn3c(=O)n1CCCO [JDIC-127]
Agonist JDIC-127 @10 μmol/L ([1]; D1, agonist mode): –1.54% | inhibition at 10 µM ([1]; D1, antagonist mode, 10 μmol/L, read-out: Antagonist JDIC-127 @10 μmol/L): 8.89% | AUC0–t (C57BL/6, 2 mpk, i.v.): 496 h∗ng/mL | AUC0–∞ (C57BL/6, 2 mpk, i.v.): 499 h∗ng/mL | AUC0–t (C57BL/6, 10 mpk, p.o.): 187 h∗ng/mL | AUC0–∞ (C57BL/6, 10 mpk, p.o.): 193 h∗ng/mL | CL (C57BL/6, 10 mpk, p.o.): 865 mL/min/kg | Vd (C57BL/6, 10 mpk, p.o.): 107 L/kg | Agonist JDIC-127 @10 μmol/L ([2]; M2, agonist mode): 2.82% | inhibition at 10 µM ([2]; M2, antagonist mode, 10 μmol/L, read-out: Antagonist JDIC-127 @10 μmol/L): -0.26% | inhibition at 10 µM [3]: -0.83% | immobility time in FST [4]: significantly reduced | Agonist JDIC-127 @10 μmol/L ([5]; agonist mode): 10.95% | inhibition at 10 µM [5, 18]: -14.7% | Kp ([6]; iv, 2 mg/kg, 2 min): 1.1 | Kp ([6]; iv, 2 mg/kg, 45 min): 3.85 | Kp ([6]; iv, 2 mg/kg, 180 min): 7.4 | Kp ([6]; po, 10 mg/kg, 2 min): 3.48 | Kp ([6]; po, 10 mg/kg, 45 min): 2.51 | Kp ([6]; po, 10 mg/kg, 180 min): 0.32 | Agonist JDIC-127 @10 μmol/L ([7]; β1, agonist mode): –1.87% | inhibition at 10 µM ([7]; β1, antagonist mode, 10 μmol/L, read-out: Antagonist JDIC-127 @10 μmol/L): 1.84% | Agonist JDIC-127 @10 μmol/L ([8]; agonist mode): 3.92% | inhibition at 10 µM [8, 19]: 5.24% | Agonist JDIC-127 @ 5 μmol/L ([9]; agonist mode): 0.74% | Antagonist JDIC-127 @5 μmol/L ([9]; antagonist mode): 26.35% | inhibition at 10 µM [10]: 11.4% | percentage of entries in the open arms, EPM [11]: significantly increased | IC50 [12]: 1 pM | Agonist JDIC-127 @10 μmol/L ([13]; agonist mode): 1.45% | inhibition at 10 µM [13, 18]: 2.63% | Agonist JDIC-127 @10 μmol/L ([14]; agonist mode): 7.81% | inhibition at 10 µM [14, 19]: -21.6% | efficacy in TST relative to reference drugs ([15]; 0.3 mg/kg p.o. vs 10 mg/kg desipramine, 3 mg/kg HC-070): comparable efficacy to desipramine and HC-070 | immobility time in TST ([15]; 0.3 or 3 mg/kg p.o., 60 min prior to testing): significantly reduced | inhibition at 10 µM [16]: 29.4% | Agonist JDIC-127 @10 μmol/L ([17]; agonist mode): 0.67% | inhibition at 10 µM [17, 18]: -0.45%

— PMC12827894, “Structure-guided design of picomolar-level macrocyclic TRPC5 channel inhibitors with antidepressant activity” (Acta Pharmaceutica Sinica. B, 2025)
